According to ChEMBL document CHEMBL3988181, “GlaxoSmithKline Published Kinase Inhibitor Set 2 Onchocerca lienalis Screening Data”:

assay: GSK PKIS2: Screen against O. lienalis microfilariae, single point, at 3.1uM to assess reduction in motility. Compounds were also tested for cytotoxicity against Rhesus Monkey LLCMK2 cells.; format: functional, Onchocerca lienalis, LLC-MK2; details: CELL_LINE LLCMK2; CELL_SUPPLIER ECACC; CONC 3.1 uM; ORGANISM_SUPPLIER Extracted from peri-umbilical skin obtained from naturally infected cattle in the UK; temperature 37 degree C

SMILES	MOTILITY REDUCTION/CYTOTOXICITY [%]
Cc1cccc(-c2nc(Nc3ccncc3)c3ccccc3n2)n1	0
NCCCC(NC(=O)c1cc(Br)c(-c2ccnc3[nH]ccc23)s1)c1ccccc1 (stereo not given)	0
Fc1ccc(-c2nc[nH]c2-c2ccncc2)cc1	0
O=C(Nc1n[nH]c2nc(-c3ccccc3)ccc12)C1CC1	0
c1ccc(-c2ccnc3[nH]ccc23)cc1	33.4
Cc1cccc(-c2nc(C)cc(Nc3ccncc3)n2)n1	0
NC[C@H](Cc1ccc(C(F)(F)F)cc1)NC(=O)c1cc(Br)c(-c2ccnc3[nH]ccc23)s1	0
Cn1cnc2c(N)ncnc21	0
c1ccc(Oc2ccc(Nc3ccnc4cc(-c5ccc(CNCCN6CCOCC6)o5)ccc34)cc2)nc1	0
COC(=O)Nc1nc2ccc(Oc3ccc(NC(=O)Nc4cc(C(F)(F)F)ccc4F)cn3)cc2[nH]1	0
COc1cccc(NC(=O)NC2CCN(c3ccnc(Nc4ccc(F)cc4)n3)C2)c1 (stereo not given)	13.4
Nc1nc(-c2ccccc2F)c(-c2ccnc3ccccc23)s1	46.7
c1ccc(-c2n[nH]cc2-c2ccnc(-c3ccc(CN4CCOCC4)cc3)c2)nc1	40
COc1cc2ncn(-c3cc(OCC4CCCCC4)c(C(N)=O)s3)c2cc1OC	33.4
Cc1c(Cn2c(C)nn3c(=O)cc(N4CCO[C@H](C)C4)nc23)cccc1C(F)(F)F	0
CCCc1ccc(S(=O)(=O)NC2CCN(c3ccnc(Nc4ccc(F)cc4)n3)C2)cc1 (stereo not given)	0
C[C@@H]1CC[C@H](C(=O)NC2CCCCC2)CN1c1cc(-c2ccc3c(N)n[nH]c3c2)nc(N)n1	0
CNc1nccc(-c2c(-c3ccc(F)cc3)ncn2C2CCN(C)CC2)n1	13.4
Clc1cc(Cl)cc(Nc2ccnc(Nc3cc(Cl)cc(Cl)c3)n2)c1	86.7
Cc1cccc(Nc2nc(NCCN)ncc2C(N)=O)c1	0
O=C(Nc1cccc(-c2nn3ccccc3c2-c2ccnc(Nc3cccc(C(F)(F)F)c3)n2)c1)c1c(F)cccc1F	26.7
COc1ccc(NC(=O)c2ccoc2)cc1-c1ccc(C(=O)NCC2CC2)cc1	13.4
Cc1nnc(-c2ccc(C)c(-c3ccc(C(=O)O)cc3)c2)o1	33.4
O=C(Nc1ccc2c(c1)OCO2)NC1CCN(c2ccnc(Nc3ccc(F)cc3)n2)C1 (stereo not given)	33.4
N#Cc1ccc(CCNc2nccc(-c3cccc(CN4CCNCC4)c3)n2)cc1	0
NC(CNC(=O)c1cc(Br)c(-c2ccnc3[nH]ccc23)s1)c1ccccc1 (stereo not given)	40
CN1CCC(n2cnc(-c3ccc(F)cc3)c2-c2ccnc(NC3CCNCC3)n2)CC1	0

SMILES	MOTILITY REDUCTION/CYTOTOXICITY [%]
N#Cc1cccc(C(=O)NC2CCN(c3ccnc(Nc4ccc(F)cc4)n3)C2)c1 (stereo not given)	20
NS(=O)(=O)c1cccc(N/C=C2\C(=O)Nc3ccc(S(=O)(=O)Cc4c(Cl)cccc4Cl)cc32)c1	33.4
COC(=O)c1cccc(NC(=O)NC2CCN(c3ccnc(Nc4ccc(OC)cc4)n3)C2)c1 (stereo not given)	66.7
Cn1ccc(-c2cccc(Nc3ccnc4cc(-c5nccs5)ccc34)c2)n1	0
CC(C)c1nc(-c2cccc(NS(=O)(=O)c3c(F)cccc3F)c2F)c(-c2ccnc(Nc3ccc(N4CCOCC4)nc3)n2)s1	93.4
Cc1c(O)cccc1Nc1ccnc2ccc(C(F)(F)F)cc12	40
NCC(C(=O)Nc1cc(Br)c(-c2ccnc3[nH]ccc23)s1)c1ccccc1 (stereo not given)	0
COc1cc(Nc2ccnc3ccc(C(F)(F)F)cc23)cc(OC)c1OC	0
COc1ccc(CNC(=O)NC2CCN(c3ccnc(Nc4ccc(OC)cc4)n3)C2)cc1 (stereo not given)	0
O=C(NCCNc1ccnc(Nc2ccc(F)cc2)n1)Nc1ccc2c(c1)OCO2	0
Cn1cc(-c2ccc3c(c2)CCN3C(=O)Cc2cccc(Cl)c2)c2c(N)ncnc21	0
Cc1ccc(NC(=O)Nc2ccccc2)cc1-c1ccc(C(=O)Nc2ccncc2)cc1	100
COc1cccc(C2=C(Nc3cccc(O)c3)C(=O)NC2=O)c1	13.4
Cc1occc1-c1nc(N)c(OC[C@@H](N)Cc2c[nH]c3ccccc23)cc1-c1cc2c(C)n[nH]c2cn1	0
COc1ccc(-n2cnc3c(N)ncnc32)cc1	0
CNC(=O)c1ccccc1Nc1nc(Nc2cccc(CS(C)(=O)=O)c2)ncc1C	33.4
CCN(CC)CCOc1ccc(Nc2ncc3cc(-c4c(Cl)cccc4Cl)c(=O)n(C)c3n2)cc1 [PD-0166285]	33.4
CC(C)(C)n1cnc2c(N)ncnc21	0
Cc1nnc(-c2ccc(C)c(-c3ccc(C(=O)Nc4ccc(NS(C)(=O)=O)cc4)cc3)c2)o1	0
COc1ccc(S(=O)(=O)NC2CCN(c3cc(C)nc(Nc4cccc(C#N)c4)n3)CC2)cc1	0
CN1CCN(Cc2ccc(NC(=O)Nc3ccc(N(C)c4ccnc(Nc5ccc(CS(C)(=O)=O)cc5)n4)cc3)cc2)CC1	100
Cc1cccc2c(-c3ccncn3)c(-c3ccc(F)cc3)nn12	13.4
Oc1ccc(-c2[nH]c(-c3ccccc3)nc2-c2ccncc2)cc1	0
Fc1ccccc1COc1ccc(Nc2ncnc3ccc(-c4nnc(C(F)(F)F)o4)cc23)cc1Cl	0
CN1C(=O)C(Nc2ccccc2)=C(c2ccccc2)C1=O	13.4
COC(=O)C(NC(=O)NC1CCN(c2ccnc(Nc3ccc(F)cc3)n2)C1)c1ccccc1 (stereo not given)	0
FC(F)(F)c1ccc(-c2ncn(CCCN3CCOCC3)c2-c2ccncc2)cc1	40

SMILES	MOTILITY REDUCTION/CYTOTOXICITY [%]
Cc1ccc(C)c(NC(=O)NC2CCN(c3ccnc(Nc4ccc(F)cc4)n3)C2)c1 (stereo not given)	33.4
COCCNC(=O)c1ccc(-c2cc(C(=O)NC3CC3)cc(F)c2C)cc1	0
Cn1cncc1C(=O)NC1CCN(c2ccnc(Nc3ccc(F)cc3)n2)C1 (stereo not given)	0
Nc1nc(-c2ccc3c(N)n[nH]c3c2)cc(N2CCCC2)n1	0
C[C@@H](Oc1cc(-n2cnc3cc(-c4cnn(C)c4)ccc32)sc1C(N)=O)c1ccccc1Cl	46.7
CCc1nc(-c2cccc(N(C)S(=O)(=O)c3ccccc3)c2)c(-c2ccnc(Nc3ccc(N4CCN(C(C)=O)CC4)nc3)n2)s1	0
COc1cccc(C2=C(Nc3ccc(Cl)c(C(=O)O)c3)C(=O)NC2=O)c1	0
NS(=O)(=O)c1cccc(Nc2cc(-c3ccc(F)cc3)n[nH]2)c1	33.4
NC(=O)c1cccc(Nc2nccc(Nc3ccc(Oc4cccc(Cl)c4)c(Cl)c3)n2)c1	20
COc1cc2ncnc(Nc3ccc(OCc4ccccc4Br)c(Cl)c3)c2cc1OC.Cl	0
CNc1nc(-c2ccc3c(N)n[nH]c3c2)cc(N2C[C@@H](C(=O)Nc3ccccc3)CC[C@H]2C)n1	0
COc1ccc(Nc2nccc(-c3ccc(NC(=O)c4cc5cc(F)ccc5[nH]4)cc3)n2)cc1	60
Cc1cccc(-c2nc(Nc3cccc(C(N)=O)c3)c3ccccc3n2)n1	46.7
CS(=O)(=O)c1ccc(-c2nc3n(c2-c2ccncc2)CCC3)cc1	0
C[C@H]1CC[C@@H](C(=O)Nc2ccccc2)CN1c1cc(-c2ccc3c(N)n[nH]c3c2)nc(N)n1	0
CS(=O)(=O)CCNCc1nc(-c2ccc3ncnc(Nc4ccc(OCc5ccccc5)c(Cl)c4)c3c2)cs1	0
Nc1ncnc2c1ncn2-c1cccc2ccccc12	0
CCCCCc1nc2c(N)ncnc2n1CCCCC	0
CC(C)c1ccc(O)cc1Nc1ccnc2ccc(C(F)(F)F)cc12	33.4
COc1cccc(CNC(=O)NC2CCN(c3ccnc(Nc4cc(OC)c(OC)c(OC)c4)n3)C2)c1 (stereo not given)	66.7
Cc1c(Cn2c(C)c(C)n3c(=O)cc(N4CCOCC4)nc23)cccc1C(F)(F)F	0
O=c1[nH]ccc2nc(N[C@@H]3CCNC3)nc(Nc3ccc4c(c3)S(=O)(=O)CC4)c12	0
O=C(Nc1n[nH]c2nc(-c3nccs3)c(Br)cc12)C1CC1	20
Cc1ccccc1-c1cc(-c2c[nH]nc2-c2ccccn2)ccn1	0
CN(C)CCOc1ccc(-c2cc(-c3ccc(Cl)c(O)c3)c(-c3ccncc3)[nH]2)cc1	0
Cc1nccc(-c2c(-c3ccc(F)cc3)ncn2CCCN2CCOCC2)n1	0
